Test results taken from ChEMBL document CHEMBL3885881, “DrugMatrix”.

Species on record: Rattus norvegicus
Assay: DrugMatrix - Regimen: Daily Repeat
Assay type: toxicity, organism-based, Sprague-Dawley
Parameters: regimen Daily Repeat, gender Male, age 6-8 weeks
Settings: in vivo, po, route oral GAVAGE; for ABSOLUTE BASOPHIL / ABSOLUTE EOSINOPHIL / ABSOLUTE LYMPHOCYTE / ABSOLUTE MONOCYTE / ABSOLUTE SEGMENTED NEUTROPHIL / BASOPHIL / EOSINOPHIL / ERYTHROCYTE COUNT / HEMATOCRIT / HEMOGLOBIN / LEUKOCYTE COUNT / LYMPHOCYTE / MEAN CORPUSCULAR HEMOGLOBIN / MEAN CORPUSCULAR HEMOGLOBIN CONCENTRATION / MEAN CORPUSCULAR VOLUME / MONOCYTE / NEUTROPHIL / NUCLEATED RED BLOOD CELLS / PLATELET COUNT: tissue Blood; for ALANINE AMINOTRANSFERASE / ALKALINE PHOSPHATASE / ASPARTATE AMINOTRANSFERASE / BLOOD UREA NITROGEN / CARBON DIOXIDE / CHLORIDE / CHOLESTEROL / CREATINE PHOSPHOKINASE / CREATININE / GLUCOSE / LACTATE DEHYDROGENASE / LIPASE / PHOSPHORUS / POTASSIUM / SODIUM / TOTAL BILIRUBIN / TOTAL PROTEIN / URIC ACID / ALBUMIN: tissue Plasma
[1] = 0 mg/kg, 72 h, dose level Control, time 3 day, […]
[2] = 0 mg/kg, 120 h, dose level Control, time 5 day, […]
[3] = 30 mg/kg, 72 h, dose level Low, time 3 day, vehicle .5 % CMC
[4] = 30 mg/kg, 120 h, dose level Low, time 5 day, vehicle .5 % CMC

CC(=O)[C@H]1CC[C@H]2[C@@H]3CCC4=CC(=O)CC[C@]4(C)[C@H]3CC[C@]12C [PROGESTERONE]
ABSOLUTE BASOPHIL [1]: 0 CELLS/uL | ABSOLUTE EOSINOPHIL [1]: 41.83 CELLS/uL | ABSOLUTE LYMPHOCYTE [1]: 8545.5 CELLS/uL | ABSOLUTE MONOCYTE [1]: 240 CELLS/uL | ABSOLUTE SEGMENTED NEUTROPHIL [1]: 906 CELLS/uL | BASOPHIL [1]: 0% | EOSINOPHIL [1]: 0.33% | ERYTHROCYTE COUNT [1]: 5.6 x10E6/uL | HEMATOCRIT [1]: 35.4% | HEMOGLOBIN [1]: 13.42 G/DL | LEUKOCYTE COUNT [1]: 9.73 x10E3/uL | LYMPHOCYTE [1]: 87.83% | MEAN CORPUSCULAR HEMOGLOBIN [1]: 23.98 pg | MEAN CORPUSCULAR HEMOGLOBIN CONCENTRATION [1]: 37.92 G/DL | MEAN CORPUSCULAR VOLUME [1]: 63.3 fL | MONOCYTE [1]: 2.5% | NEUTROPHIL [1]: 9.33% | NUCLEATED RED BLOOD CELLS [1]: 0 /100WBC | PLATELET COUNT [1]: 1032 x10E3/uL | ALANINE AMINOTRANSFERASE [1]: 72.83 u/L | ALKALINE PHOSPHATASE [1]: 322.83 u/L | ASPARTATE AMINOTRANSFERASE [1]: 102.67 u/L | BLOOD UREA NITROGEN [1]: 12 mg/dL | CARBON DIOXIDE [1]: 34.33 mmol/L | CHLORIDE [1]: 97.67 MEQ/L | CHOLESTEROL [1]: 82.5 mg/dL | CREATINE PHOSPHOKINASE [1]: 410.33 u/L | CREATININE [1]: 0.18 mg/dL | GLUCOSE [1]: 164.5 mg/dL | LACTATE DEHYDROGENASE [1]: 119.5 u/L | LIPASE [1]: 11.83 u/L | PHOSPHORUS [1]: 9.52 mg/dL | POTASSIUM [1]: 5.56 MEQ/L | SODIUM [1]: 142.48 MEQ/L | TOTAL BILIRUBIN [1]: 0.18 mg/dL | TOTAL PROTEIN [1]: 5.77 G/DL | URIC ACID [1]: 0.48 mg/dL | ABSOLUTE BASOPHIL [2]: 0 CELLS/uL | ABSOLUTE EOSINOPHIL [2]: 0 CELLS/uL | ABSOLUTE LYMPHOCYTE [2]: 9065 CELLS/uL | ABSOLUTE MONOCYTE [2]: 341.33 CELLS/uL | ABSOLUTE SEGMENTED NEUTROPHIL [2]: 527 CELLS/uL | BASOPHIL [2]: 0% | EOSINOPHIL [2]: 0% | ERYTHROCYTE COUNT [2]: 5.25 x10E6/uL | HEMATOCRIT [2]: 34.08% | HEMOGLOBIN [2]: 13.5 G/DL | LEUKOCYTE COUNT [2]: 9.93 x10E3/uL | LYMPHOCYTE [2]: 91.17% | MEAN CORPUSCULAR HEMOGLOBIN [2]: 25.7 pg | MEAN CORPUSCULAR HEMOGLOBIN CONCENTRATION [2]: 39.62 G/DL | MEAN CORPUSCULAR VOLUME [2]: 64.93 fL | MONOCYTE [2]: 3.33% | NEUTROPHIL [2]: 5.5% | NUCLEATED RED BLOOD CELLS [2]: 0 /100WBC | PLATELET COUNT [2]: 1077.5 x10E3/uL | ALANINE AMINOTRANSFERASE [2]: 57.83 u/L | ALKALINE PHOSPHATASE [2]: 319.17 u/L | ASPARTATE AMINOTRANSFERASE [2]: 83.33 u/L | BLOOD UREA NITROGEN [2]: 13.67 mg/dL | CARBON DIOXIDE [2]: 30.83 mmol/L | CHLORIDE [2]: 98.33 MEQ/L | CHOLESTEROL [2]: 64.83 mg/dL | CREATINE PHOSPHOKINASE [2]: 263.67 u/L | CREATININE [2]: 0.2 mg/dL | GLUCOSE [2]: 182.83 mg/dL | LACTATE DEHYDROGENASE [2]: 124 u/L | LIPASE [2]: 10.5 u/L | PHOSPHORUS [2]: 10 mg/dL | POTASSIUM [2]: 5.78 MEQ/L | SODIUM [2]: 142.48 MEQ/L | TOTAL BILIRUBIN [2]: 0.2 mg/dL | TOTAL PROTEIN [2]: 6 G/DL | URIC ACID [2]: 0.7 mg/dL

CCCc1cc(=O)[nH]c(=S)[nH]1 [PROPYLTHIOURACIL]
BASOPHIL [3]: 0% | EOSINOPHIL [3]: 0.67% | ERYTHROCYTE COUNT [3]: 5.84 x10E6/uL | HEMATOCRIT [3]: 36.23% | HEMOGLOBIN [3]: 14.13 G/DL | LEUKOCYTE COUNT [3]: 20.27 x10E3/uL | LYMPHOCYTE [3]: 89.33% | MEAN CORPUSCULAR HEMOGLOBIN [3]: 24.23 pg | MEAN CORPUSCULAR HEMOGLOBIN CONCENTRATION [3]: 39 G/DL | MEAN CORPUSCULAR VOLUME [3]: 62.03 fL | MONOCYTE [3]: 2% | NEUTROPHIL [3]: 8% | PLATELET COUNT [3]: 1163.33 x10E3/uL | ALANINE AMINOTRANSFERASE [3]: 44 u/L | ALBUMIN [3]: 3.73 G/DL | ALKALINE PHOSPHATASE [3]: 305.67 u/L | ASPARTATE AMINOTRANSFERASE [3]: 56 u/L | BLOOD UREA NITROGEN [3]: 11 mg/dL | CHLORIDE [3]: 106.33 MEQ/L | CHOLESTEROL [3]: 78 mg/dL | CREATINE PHOSPHOKINASE [3]: 125.67 u/L | CREATININE [3]: 0.47 mg/dL | GLUCOSE [3]: 167.33 mg/dL | PHOSPHORUS [3]: 11 mg/dL | POTASSIUM [3]: 6.5 MEQ/L | SODIUM [3]: 152 MEQ/L | TOTAL BILIRUBIN [3]: 0.3 mg/dL | TOTAL PROTEIN [3]: 5.9 G/DL | BASOPHIL [4]: 0% | EOSINOPHIL [4]: 0% | ERYTHROCYTE COUNT [4]: 6.26 x10E6/uL | HEMATOCRIT [4]: 37.07% | HEMOGLOBIN [4]: 14.77 G/DL | LEUKOCYTE COUNT [4]: 11.7 x10E3/uL | LYMPHOCYTE [4]: 87% | MEAN CORPUSCULAR HEMOGLOBIN [4]: 23.6 pg | MEAN CORPUSCULAR HEMOGLOBIN CONCENTRATION [4]: 39.83 G/DL | MEAN CORPUSCULAR VOLUME [4]: 59.2 fL | MONOCYTE [4]: 1.67% | NEUTROPHIL [4]: 11.33% | PLATELET COUNT [4]: 1185.67 x10E3/uL | ALANINE AMINOTRANSFERASE [4]: 32.67 u/L | ALBUMIN [4]: 3.53 G/DL | ALKALINE PHOSPHATASE [4]: 297.33 u/L | ASPARTATE AMINOTRANSFERASE [4]: 51.67 u/L | BLOOD UREA NITROGEN [4]: 13.33 mg/dL | CHLORIDE [4]: 108.33 MEQ/L | CHOLESTEROL [4]: 68 mg/dL | CREATINE PHOSPHOKINASE [4]: 112 u/L | CREATININE [4]: 0.53 mg/dL | GLUCOSE [4]: 180.33 mg/dL | PHOSPHORUS [4]: 10.03 mg/dL | POTASSIUM [4]: 6.8 MEQ/L | SODIUM [4]: 149 MEQ/L | TOTAL BILIRUBIN [4]: 0.23 mg/dL | TOTAL PROTEIN [4]: 5.7 G/DL
